# Experimental data published in PMC9460261, “Need for a Standardized Translational Drug Development Platform: Lessons Learned from the Repurposing of Drugs for COVID-19” (Microorganisms, 2022).
# Counter-ions that a name gives are not always drawn. Like-named read-outs stand apart in the source and are kept apart here.
# How the values were obtained:
# [1] = system: SARS-CoV-2; format: in vivo, Syrian hamster; conditions: for Activity in SARS-CoV-2 Hamster Model: doses, frequency, duration as in Table 1
# [2] = Population PK model in human (digitized literature data); conditions: modelled from digitized data
# [3] = system: SARS-CoV-2 in Vero cells
# [4] = system: SARS-CoV-2 in Calu-3 cells
# [5] = system: SARS-CoV-2; conditions: read-out: SARS-CoV-2 EC50, cited from earlier work
# [6] = Plasma protein binding, human; conditions: human, plasma
# [7] = Plasma protein binding, hamster; conditions: hamster, plasma
# [8] = system: SARS-CoV-2 in Vero cells; assay: microbe, parasite or virus in culture; conditions: Severe acute respiratory syndrome coronavirus 2, Vero
# [9] = system: SARS-CoV-2 in Calu-3 cells; assay: microbe, parasite or virus in culture
# [10] = Population PK model from satellite PK studies in hamster; conditions: for CL/F, elimination clearance, population estimate (%RSE) / KA, absorption rate constant, population estimate (%RSE) / Q/F (Q1/F), inter-compartment clearance, population estimate (%RSE) / VC/F, central volume of distribution, population estimate (%RSE) / VP/F, peripheral volume of distribution, population estimate (%RSE): hamster of the study's median weight (80-131 g)
# [11] = Binding to antiviral assay medium by Rapid Equilibrium Dialysis; conditions: bovine, antiviral assay medium (DMEM with 2% v/v FCS)
# [12] = female, LGV Golden Syrian, hamster, in vivo
# [13] = in vitro; conditions: African green monkey, Selectivity Index (Vero cells)
# [14] = in vitro; conditions: bovine
# [15] = in vitro; conditions: hamster, plasma
# [16] = in vitro; conditions: human, plasma
# [17] = cited from earlier work
# [18] = human, ref 68 (ambroxol), 71-73 (cepharanthine), 78 (fluvoxamine), 80 (molnupiravir)
# [19] = read-out: VERO cells Average IC50, With Pgp pump inhibitor, 2 μM CP-100356, * one replicate only
# [20] = read-out: VERO cells Average IC50, Without Pgp pump inhibitor, * one replicate only
# [21] = Severe acute respiratory syndrome coronavirus 2, Calu-3, read-out: Calu-3 cells Average IC50
# [22] = human, ref 68 (ambroxol), 71-73 (cepharanthine)
SMILES,Activity in SARS-CoV-2 Hamster Model [1],"CL/F, population estimate (%RSE) [2, 18]",Activity In Vitro; Potency EC50 or IC50 < 10 µM; Vero Cells [3],Activity In Vitro; Potency EC50 or IC50 < 10 µM; Calu-3 Cells [4],fraction unbound [6],fraction unbound [7],"IC50 [8, 19]","IC50 [8, 20]","IC50 [9, 21]","Dose effect on F (power) ([10]; covariate, hamster model)","CL/F, elimination clearance, population estimate (%RSE) [10]","KA, absorption rate constant, population estimate (%RSE) [10]","Q/F (Q1/F), inter-compartment clearance, population estimate (%RSE) [10]","VC/F, central volume of distribution, population estimate (%RSE) [10]","VP/F, peripheral volume of distribution, population estimate (%RSE) [10]",fraction unbound [11],"Toxicity observed (^T), Vero Cells [3]","CL/F, elimination clearance, population estimate (%RSE) [12]",selectivity ratio ([13]; With Pgp pump inhibitor),selectivity ratio ([13]; Without Pgp pump inhibitor),also measured
"Nc1c(Br)cc(Br)cc1CN[C@H]1CC[C@H](O)CC1 [Ambroxol, ambroxol]",No,41.4 (3.0%) L/h,No (Potency EC50 or IC50 < 10 µM),No (Potency EC50 or IC50 < 10 µM),0.238,0.125,> 50 µM,> 50 µM,> 50 µM,0.689 (11.1%),4860 (11.3%) mL/h,4.76 (15.1%) h-1,1180 (22.5%) mL/h,12000 (10.9%) mL,16100 (31.6%) mL,0.954,,,,,"EC50 ([5]; host cell Vero E6, ref 47): > 30 µM"
"COc1ccc2cc1Oc1ccc(cc1)C[C@H]1c3c(cc4c(c3Oc3cc5c(cc3OC)CCN(C)[C@@H]5C2)OCO4)CCN1C [Cepharanthine, cepharanthine]",No,74.4 (5.5%) L/h,Yes (Potency EC50 or IC50 < 10 µM),No (Potency EC50 or IC50 < 10 µM),,,1.9 µM,4.5 µM,> 50 µM,,,,,,,,Yes ^T,804 (25.0) mL/h,17.2,9.7,"F, population estimate (%RSE) ([2]; adult 70 kg): 0.116 (7.3%); KA, population estimate (%RSE) ([2]; adult 70 kg): 0.187 (11.0%) h-1; Q2/F, population estimate (%RSE) ([2]; adult 70 kg): 131 (14.2%) L/h; VP2/F, population estimate (%RSE) ([2]; adult 70 kg): 438 (26.5%) L; Q/F (Q1/F), population estimate (%RSE) [2, 22]: 258 (7.6%) L/h; VP/F (VP1/F), population estimate (%RSE) [2, 22]: 9190 (7.3%) L; VC/F, population estimate (%RSE) [2, 18]: 110 (10.8%) L; KA, absorption rate constant, population estimate (%RSE) [12]: 1.52 (27.0) h-1; VC/F, central volume of distribution, population estimate (%RSE) [12]: 66400 (12.5) mL; EC50 ([5]; host cell VeroE6/TMPRSS2): 0.35 µM; fraction unbound [14]: 0.643; fraction unbound [15]: 0.018; fraction unbound [16]: 0.02"
"CC(C)/N=c1\cc2n(-c3ccc(Cl)cc3)c3ccccc3nc-2cc1Nc1ccc(Cl)cc1 [Clofazimine, clofazimine]",No,,Yes (Potency EC50 or IC50 < 10 µM),Yes (Potency EC50 or IC50 < 10 µM),,,,,8.4 µM,-0.109 (16.2),,0.38 (11.0) h-1,235 (10.4) mL/h,,2250 (28.0) mL,,Yes ^T,49.4 (7.2) mL/h,208,8.4,"VC/F, central volume of distribution, population estimate (%RSE) [12]: 356 (11.9) mL; EC50 ([5]; host cell Vero E6, ref 39): 0.31 µM; fraction unbound [14]: 0.003; fraction unbound [15]: < 0.001; fraction unbound [16]: < 0.001; IC50 ([8]; read-out: VERO cells Average IC50, With Pgp pump inhibitor): 0.2 µM; IC50 ([8]; read-out: VERO cells Average IC50, Without Pgp pump inhibitor): 5.9 µM; Dose effect on KA (exp) ([10]; covariate, hamster model): -0.0094 (20.4); Q2/F, population estimate (%RSE) ([10]; hamster 120 g): 90.5 (20.6) mL/h; VP2/F, population estimate (%RSE) ([10]; hamster 120 g): 7390 (14.9) mL"
"COCCCC/C(=N\OCCN)c1ccc(C(F)(F)F)cc1 [Fluvoxamine maleate, fluvoxamine maleate]",No,0.148 (3.0) L/h,No (key: Yes: Potency EC50 or IC50 < 10 µM; No: Potency EC50 or IC50 < 10 µM),No (key: Yes: Potency EC50 or IC50 < 10 µM; No: Potency EC50 or IC50 < 10 µM),0.254,0.281,32.6 µM,26 µM,> 50 µM,1.21 (7.4),9500 (10.8) mL/h,,,16500 (12.8) mL,,0.771,,,,,
"Cc1c(O)cccc1C(=O)N[C@@H](CSc1ccccc1)[C@H](O)CN1C[C@H]2CCCC[C@H]2C[C@H]1C(=O)NC(C)(C)C [Nelfinavir, nelfinavir]",No ^e,,Yes (Potency EC50 or IC50 < 10 µM),Yes (Potency EC50 or IC50 < 10 µM),0.001,0.001,1.6 µM,5.5 µM,12.8 µM,,613 (4.2) mL/h,,,547 (15.3) mL,,0.243,Yes ^T,,> 32,> 9,"Lung inflammation and disease outcome ([1]; hamster, in vivo): diminution of lung inflammation; Virus load ([1]; hamster, in vivo): no effect on viral load was detected; EC50 ([5]; host cell Vero E6, ref 41): 2.89 µM; EC50 ([5]; host cell Vero, ref 40): 0.048 µM; EC50 ([5]; host cell VeroE6/TMPRSS2): 0.77 µM; IC50 ([9]; Severe acute respiratory syndrome coronavirus 2, Calu-3, read-out: EC50 or IC50, Calu-3 Cells (borderline)): 13 µM; Dose effect on F (linear) ([10]; covariate, hamster model): 0.384 (32); Dose effect on KA (linear) ([10]; covariate, hamster model): -0.801 (3.7)"
CCC(CC)COC(=O)[C@H](C)N[P@](=O)(OC[C@H]1O[C@@](C#N)(c2ccc3c(N)ncnn23)[C@H](O)[C@@H]1O)Oc1ccccc1 [remdesivir],,,,,,,,,,,,,,,,,,,,,"Effect on lung infectious titers ([1]; hamster, in vivo): no significant effect; Effect on lung viral RNA yields ([1]; hamster, in vivo): little significant effect; Plasma stability, half-life ([17]; genetically modified mouse (Cesc-/- knockout)): around 25 min; Plasma stability, half-life ([17]; mice): < 5 min"
